Measurements taken from US7732473B2, “Compounds with nootropic action, their preparation, pharmaceutical compositions containing them, and use thereof” (Neurotune AG, priority 2006, dated 2010).

System: rat model of mononeuropathy dx
Assay: Paw-pressure test in rat chronic constriction injury model of mononeuropathy, injured paw (dx)
Assay type: in vivo
Details: i.c.v., dose per compound (3-300 μg); paw-pressure test 14 days after operation
Text: Pharmacological Methods Chronic Constriction Injury Model
A peripheral mononeuropathy was produced in adult rats by placing loosely constrictive ligatures around the common sciatic nerve according to the method described by Bennett & Xie (Pain […], 33, 87-107).
Rats were anesthetized with chloral hydrate. The common sciatic nerve was exposed at the level of the middle of the thigh by blunt dissection through biceps femoris. Proximal to sciatica's trifurcation, about 1 cm of the nerve was freed of adhering tissue and four ligatures (3/0 silk tread) were tied loosely around it with about 1 mm spacing. The length of the nerve thus affected was […]. Great care was taken to tie the ligatures such that the diameter of the nerve was seen to be just barely constricted when viewed with 40× magnification. The left paw was untouched.
The nociceptive threshold in the rat was determined with an analgesimeter (Ugo Basile, Varese, Italy), according to the method described by Leighton et al. (Br. J. Pharmacol. 1988, 93, 553-560). Rats scoring below 40 g or over 75 g during the test before drug administration (25%) were rejected. An arbitrary cut-off value of 250 g was adopted.

**Q.** Which “antihyperalgic effect compared with saline or vehicle treated group” value does the source give for `O=C1CN2C(=O)CCC2N1` (stereo not drawn) [DIMIRACETAM, 2,5-dioxohexahydro-1H-pyrrolo[1,2-a]imidazole, reference compound] here?
**A.** Its value is “showed an antihyperalgic effect”.

**Q.** Which “antihyperalgic effect compared with saline or vehicle treated group” value does the source give for `O=C1CCC2N1CC(=O)N2c1ccccc1` (stereo not drawn) [Example 1, 1-Phenyl-tetrahydro-1H-pyrrolo[1,2-a]imidazole-2,5-dione] here?
**A.** Its value is “showed an antihyperalgic effect”.

**Q.** Which “antihyperalgic effect compared with saline or vehicle treated group” value does the source give for `Cc1ccccc1N1C(=O)CN2C(=O)CCC21` (stereo not drawn) [Example 2, 1-o-tolyl-tetrahydro-1H-pyrrolo[1,2-a]imidazole-2,5-dione] here?
**A.** Its value is “showed an antihyperalgic effect”.

**Q.** With `Cc1cccc(N2C(=O)CN3C(=O)CCC32)c1` (stereo not drawn) [Example 5, 1-m-Tolyl-tetrahydro-pyrrolo[1,2-a]imidazole-2,5-dione] as the compound, how does the “antihyperalgic effect compared with saline or vehicle treated group” value read?
**A.** Its value is “showed an antihyperalgic effect”.

**Q.** With `Cc1ccc(N2C(=O)CN3C(=O)CCC32)cc1` (stereo not drawn) [Example 6, 1-p-Tolyl-tetrahydro-pyrrolo[1,2-a]imidazole-2,5-dione] as the compound, how does the “antihyperalgic effect compared with saline or vehicle treated group” value read?
**A.** The value was “showed an antihyperalgic effect”.

**Q.** For `N#Cc1cccc(N2C(=O)CN3C(=O)CCC32)c1` (stereo not drawn) [Example 13, 1-(3-Cyano-phenyl)-tetrahydro-pyrrolo [1,2-a]imidazole-2,5-dione], which “antihyperalgic effect compared with saline or vehicle treated group” value is on record?
**A.** The value was “showed an antihyperalgic effect”.

**Q.** For `CC(C)c1cccc(N2C(=O)CN3C(=O)CCC32)c1` (stereo not drawn) [Example 22, 1-(3-Isopropyl-phenyl)-tetrahydro-pyrrolo [1,2-a]imidazole-2,5-dione], which “antihyperalgic effect compared with saline or vehicle treated group” value is on record?
**A.** The value was “showed an antihyperalgic effect”.

**Q.** For `NCC1(CC(=O)O)CCCCC1` [GABAPENTIN, reference compound], which “antihyperalgic effect compared with saline or vehicle treated group” value is on record?
**A.** The value was “showed an antihyperalgic effect”.

**Q.** Which “antihyperalgic effect compared with saline or vehicle treated group” value does the source give for `CC[C@@H](C(N)=O)N1CCCC1=O` [LEVETIRACETAM, 2-(2-oxopyrrolidin-1-yl) butyramide, reference compound] here?
**A.** The value was “showed an antihyperalgic effect”.

System: not given
Assay: not given
Details: not given

**Q.** For `N#Cc1ccc(N2C(=O)CN3C(=O)CCC32)cc1` (stereo not drawn), which melting point is on record?
**A.** Its melting point is 175 to 176 °C.

**Q.** For `O=C1CCC2N1CC(=O)N2c1ccccc1` (stereo not drawn) [Example 1, 1-Phenyl-tetrahydro-1H-pyrrolo[1,2-a]imidazole-2,5-dione], which melting point is on record?
**A.** Its melting point is 185 to 188 °C.

**Q.** With `Cc1ccccc1N1C(=O)CN2C(=O)CCC21` (stereo not drawn) [Example 2, 1-o-tolyl-tetrahydro-1H-pyrrolo[1,2-a]imidazole-2,5-dione] as the compound, how does the melting point read?
**A.** Its melting point is 138 to 139 °C.

**Q.** Which melting point does the source give for `O=C1CCC2N1CC(=O)N2c1cccs1` (stereo not drawn) [Example 4, 1-Thiophen-2-yl-tetrahydro-pyrrolo[1,2-a]imidazole-2,5-dione] here?
**A.** The melting point was 170 to 171 °C.

**Q.** For `Cc1cccc(N2C(=O)CN3C(=O)CCC32)c1` (stereo not drawn) [Example 5, 1-m-Tolyl-tetrahydro-pyrrolo[1,2-a]imidazole-2,5-dione], which melting point is on record?
**A.** Its melting point is 92 to 93 °C.

**Q.** For `Cc1ccc(F)cc1N1C(=O)CN2C(=O)CCC21` (stereo not drawn) [Example 7, 1-(5-Fluoro-2-methyl-phenyl)-tetrahydro-pyrrolo[1,2-a]imidazole-2,5-dione], which melting point is on record?
**A.** The melting point was 147 to 148 °C.

**Q.** With `Cc1c(F)cccc1N1C(=O)CN2C(=O)CCC21` (stereo not drawn) [Example 8] as the compound, how does the melting point read?
**A.** Its melting point is 135 to 137 °C.

**Q.** For `Cc1cc(Cl)ccc1N1C(=O)CN2C(=O)CCC21` (stereo not drawn) [Example 10, 1-(4-Chloro-2-methyl-phenyl)-tetrahydro-pyrrolo[1,2-a]imidazole-2,5-dione], which melting point is on record?
**A.** Its melting point is 122 to 124 °C.

**Q.** For `O=C1CCC2N1CC(=O)N2c1cccc(Cl)c1` (stereo not drawn) [Example 11, 1-(3-Chloro-phenyl)-tetrahydro-pyrrolo [1,2-a]imidazole-2,5-dione], which melting point is on record?
**A.** Its melting point is 123 to 125 °C.

**Q.** For `COc1cccc(N2C(=O)CN3C(=O)CCC32)c1` (stereo not drawn) [Example 12, 1-(3-Methoxy-phenyl)-tetrahydro-pyrrolo [1,2-a]imidazole-2,5-dione], which melting point is on record?
**A.** The melting point was 94 to 95 °C.

**Q.** For `N#Cc1cccc(N2C(=O)CN3C(=O)CCC32)c1` (stereo not drawn) [Example 13, 1-(3-Cyano-phenyl)-tetrahydro-pyrrolo [1,2-a]imidazole-2,5-dione], which melting point is on record?
**A.** The melting point was 128 to 130 °C.

**Q.** Which melting point does the source give for `O=C1CCC2N1CC(=O)N2c1ccc(Cl)cc1` (stereo not drawn) [Example 14, 1-(4-Chloro-phenyl)-tetrahydro-pyrrolo [1,2-a]imidazole-2,5-dione] here?
**A.** The melting point was 159 to 160 °C.

**Q.** With `O=C1CCC2N1CC(=O)N2c1cccc(O)c1` (stereo not drawn) [Example 15, 1-(3-Hydroxy-phenyl)-tetrahydro-pyrrolo [1,2-a]imidazole-2,5-dione] as the compound, how does the melting point read?
**A.** The melting point was 210 to 211 °C.

**Q.** Which melting point does the source give for `COc1ccc(N2C(=O)CN3C(=O)CCC32)cc1` (stereo not drawn) [Example 18, 1-(4-Methoxy-phenyl)-tetrahydro-pyrrolo[1,2-a]imidazole-2,5-dione] here?
**A.** The melting point was 210 to 211 °C.

**Q.** Which melting point does the source give for `Cc1cc(C)cc(N2C(=O)CN3C(=O)CCC32)c1` (stereo not drawn) [Example 19, 1-(3,5-Dimethyl-phenyl)-tetrahydro-pyrrolo [1,2-a]imidazole-2,5-dione] here?
**A.** The melting point was 103 to 104 °C.

**Q.** For `Cc1ccc(N2C(=O)CN3C(=O)CCC32)cc1C` (stereo not drawn) [Example 20, 1-(3,4-Dimethyl-phenyl)-tetrahydro-pyrrolo [1,2-a]imidazole-2,5-dione], which melting point is on record?
**A.** Its melting point is 142 to 143 °C.

**Q.** For `O=C1CCC2N1CC(=O)N2c1ccc2ccccc2c1` (stereo not drawn) [Example 21, 1-Naphthalen-2-yl-tetrahydro-pyrrolo [1,2-a]imidazole-2,5-dione], which melting point is on record?
**A.** The melting point was 175 to 176 °C.

**Q.** For `CC(C)c1cccc(N2C(=O)CN3C(=O)CCC32)c1` (stereo not drawn) [Example 22, 1-(3-Isopropyl-phenyl)-tetrahydro-pyrrolo [1,2-a]imidazole-2,5-dione], which melting point is on record?
**A.** Its melting point is 81 to 82 °C.

**Q.** Which melting point does the source give for `Cc1cc(N2C(=O)CN3C(=O)CCC32)ccc1Cl` (stereo not drawn) [Example 23, 1-(4-Chloro-3-methyl-phenyl)-tetrahydro-pyrrolo[1,2-a]imidazole-2,5-dione] here?
**A.** The melting point was 138 to 139 °C.

**Q.** For `O=C1C(Cc2ccccc2)N2C(=O)CCC2N1c1ccccc1` (stereo not drawn) [Example 24, 3-Benzyl-1-phenyl-tetrahydro-pyrrolo [1,2-a]imidazole-2,5,-dione], which melting point is on record?
**A.** The melting point was 134 to 136 °C.

**Q.** With `CC1C(=O)N(c2ccccc2)C2CCC(=O)N12` (stereo not drawn) [Example 25, 3-Methyl-1-phenyl-tetrahydro-pyrrolo [1,2-a]imidazole-2,5,-dione] as the compound, how does the melting point read?
**A.** Its melting point is 137 to 138 °C.

**Q.** With `CC(C)CC1C(=O)N(c2ccccc2)C2CCC(=O)N12` (stereo not drawn) [Example 26, 3-Isobutyl-1-phenyl-tetrahydro-pyrrolo [1,2-a]imidazole-2,5,-dione] as the compound, how does the melting point read?
**A.** Its melting point is 101 to 102 °C.

**Q.** For `Cc1cc(F)cc(N2C(=O)CN3C(=O)CCC32)c1` (stereo not drawn) [Example 27, 1-(3-Fluoro-5-methyl-phenyl)-tetrahydro-pyrrolo[1,2-a]imidazole-2,5-dione], which melting point is on record?
**A.** Its melting point is 111 to 113 °C.

**Q.** For `Cc1ccc(N2C(=O)CN3C(=O)CCC32)cc1F` (stereo not drawn) [Example 28, 1-(3-Fluoro-4-methyl-phenyl)-tetrahydro-pyrrolo[1,2-a]imidazole-2,5-dione], which melting point is on record?
**A.** Its melting point is 136 to 137 °C.

**Q.** With `CC12CCC(=O)N1CC(=O)N2c1ccccc1` (stereo not drawn) [Example 29, 7a-Methyl-1-phenyl-tetrahydro-pyrrolo [1,2-a]imidazole-2,5-dione] as the compound, how does the melting point read?
**A.** The melting point was 154 to 155 °C.

**Q.** For `CC(C)c1ccc(N2C(=O)CN3C(=O)CCC32)cc1` (stereo not drawn) [Example 33, 1-(4-Isopropyl-phenyl)-tetrahydro-pyrrolo [1,2-a]imidazole-2,5-dione], which melting point is on record?
**A.** The melting point was 124 to 125 °C.

**Q.** With `O=C1CCC2N1CC(=O)N2c1ccc(CO)cc1` (stereo not drawn) [Example 34, 1-(4-Hydroxymethyl-phenyl)-tetrahydro-pyrrolo[1,2-a]imidazole-2,5-dione] as the compound, how does the melting point read?
**A.** The melting point was 159 to 161 °C.

**Q.** For `O=C(O)c1ccc(N2C(=O)CN3C(=O)CCC32)cc1` (stereo not drawn) [Example 35, 4-(2,5-Dioxo-hexahydro-pyrrolo[1,2-a]imidazole-1-yl)-benzoic acid], which melting point is on record?
**A.** The melting point was 252 to 253 °C.

**Q.** For `CCOC(=O)c1ccc(N2C(=O)CN3C(=O)CCC32)cc1` (stereo not drawn) [Example 36, 4-(2,5-Dioxo-hexahydro-pyrrolo[1,2-a]imidazole-1-yl)-benzoic acid ethyl ester], which melting point is on record?
**A.** The melting point was 158 to 159 °C.

**Q.** With `CS(=O)(=O)c1ccc(N2C(=O)CN3C(=O)CCC32)cc1` (stereo not drawn) [Example 37, 1-(4-Methanesulfonyl-phenyl)-tetrahydro-pyrrolo[1,2-a]imidazole-2,5-dione] as the compound, how does the melting point read?
**A.** The melting point was 143 to 145 °C.

**Q.** With `O=C1CCC2N1CC(=O)N2c1ccc(F)cc1` (stereo not drawn) [Example 38, 1-(4-Fluoro-phenyl)-tetrahydro-pyrrolo [1,2-a]imidazole-2,5-dione] as the compound, how does the melting point read?
**A.** The melting point was 158 to 159 °C.

**Q.** For `O=C1CCC2N1CC(=O)N2c1ccccn1` (stereo not drawn) [Example 40, 1-Pyridin-2-yl-tetrahydro-pyrrolo[1,2-a] imidazole-2,5-dione], which melting point is on record?
**A.** Its melting point is 139 to 140 °C.

**Q.** With `O=C1CCC2N1CC(=O)N2c1cccnc1` (stereo not drawn) [Example 41, 1-Pyridin-3-yl-tetrahydro-pyrrolo[1,2-a] imidazole-2,5-dione] as the compound, how does the melting point read?
**A.** Its melting point is 180 to 182 °C.

**Q.** With `Cc1ccc(N2C(=O)CN3C(=O)CCC32)nc1` (stereo not drawn) [Example 42, 1-(5-Methylpyridin-2-yl)-tetrahydropyrrolo [1,2-a]imidazole-2,5-dione] as the compound, how does the melting point read?
**A.** Its melting point is 158 to 159 °C.

**Q.** With `N#Cc1ccccc1N1C(=O)CN2C(=O)CCC21` (stereo not drawn) [Example 43, 1-(2-Cyano-phenyl)-tetrahydro-pyrrolo [1,2-a]imidazole-2,5-dione] as the compound, how does the melting point read?
**A.** The melting point was 94 to 95 °C.

**Q.** For `O=C1CCC2N1CC(=O)N2c1cccc(F)c1` (stereo not drawn) [Example 44, 1-(3-Fluoro-phenyl)-tetrahydro-pyrrolo [1,2-a]imidazole-2,5-dione], which melting point is on record?
**A.** The melting point was 145 to 149 °C.
